Test results as given in patent publication US12257247B2 (Monte Rosa Therapeutics AG, priority 2023, dated 2025).
Like-named read-outs stand apart in the source and are kept apart here.

Biological target: T1, VAV1 (Homo sapiens, UniProt P15498+Q96SW2)
T1 construct: A heterozygous VAV1 C-terminal HiBiT knock-in pool was generated at Monte Rosa Therapeutics from a clonal Jurkat cell; endogenous in cells; host or cells: Jurkat clone stably expressing LgBiT, homozygous GSPT1-G575N; heterozygous VAV1-HiBiT knock-in pool
Experiment: VAV1 degradation activity, VAV1-HiBiT knock-in Jurkat luminescence assay (Example A, Table 1)
Assay type: cell-based
Conditions: VAV1-HiBiT knock-in Jurkat cells; for Dmax: Jurkat
Description: Cells were plated at 10,000 cells per well using Multiflo (BioTek) or Multi Drop Combi (Thermo Fisher) in 384-well white solid bottom plates (Corning, 3570BC) in 25 ul volume in RPMI 1640 media (Thermo Fischer, 22400105) containing 10% FBS (Corning, 35-075-CV), 1% Penicillin/Streptomycin (ThermoFisher Scientific, 15140-122), and 1% Endurazine (Nano-Glo Endurazine Live Cell Substrate (Promega, N2571)). Cells were incubated for ˜16 hours at 37° C., 5% CO2. 25 nL of a compound at 10 μM were dosed into the plate using an Echo® 650 liquid handler (Labcyte). Cells were incubated at 37° C., 5% CO2 and signal was read at 6 and 24 hours after compound addition on a Pherastar FSX using “LUM plus” optic module.
Analysis was performed in Scinamic (Scinamic, Cambridge, MA). Luminescence response (R) was calculated by the formula: response=100*(S−N)/(P−N) where S is the signal of the well, N and P the mean negative and positive control values respectively of the same plate. The luminescence response was then fitted in Scinamic using a 3-parameter agonist logistic fit (hillslope=1, EC50>0, top/bottom unconstrained).

[1] = luminescence read at 6 and 24 hours, read-out: VAV1 Dmax %
[2] = luminescence read at 6 and 24 hours, read-out: VAV1 Dmax %, class
[3] = luminescence read at 6 and 24 hours, read-out: VAV1 DC50
[4] = luminescence read at 6 and 24 hours, read-out: VAV1 DC50 (nM), class
[5] = luminescence read at 6 and 24 hours after compound addition, read-out: VAV1 Dmax %
[6] = luminescence read at 6 and 24 hours after compound addition, read-out: VAV1 Dmax %, class
[7] = luminescence read at 6 and 24 hours after compound addition, read-out: VAV1 DC50
[8] = luminescence read at 6 and 24 hours after compound addition, read-out: VAV1 DC50 (nM), class

Dmax [1] [%] | Dmax [2] [%] | DC50 [3] [nM] | DC50 [4] [nM] | Dmax [5] [%] | Dmax [6] [%] | DC50 [7] [nM] | DC50 [8] [nM] | SMILES
96.6 | > 90 | 10.7 | ≤ 100 |  |  |  |  | O=C1CCC(c2cccc(-c3ccc(C(=O)N4CCCCC4)cc3)c2Cl)C(=O)N1 (centres unmarked) [Compound 223, 3-(2-chloro-4′-(piperidine-1-carbonyl)-[1,1′-biphenyl]-3-yl)piperidine-2,6-dione]
91.4 | > 90 | 33.7 | ≤ 100 |  |  |  |  | Cc1ccn(Cc2ccc(-c3cccc(C4CCC(=O)NC4=O)c3Cl)cc2)c(=O)c1 (centres unmarked) [Compound 189, 3-(2-chloro-4′-((4-methyl-2-oxopyridin-1(2H)-yl)methyl)-[1,1′-biphenyl]-3-yl)piperidine-2,6-dione]
93.3 | > 90 | 11.1 | ≤ 100 |  |  |  |  | O=C1CCC(c2cccc(-c3ccc(CN4CCC5CC5C4=O)cc3)c2Cl)C(=O)N1 (centres unmarked) [Compound 283]
 |  |  |  | 88.5 | 60 to 90 | 15.7 | ≤ 100 | O=C1CCC(c2cccc(-c3ccc4c(c3)CCN4)c2F)C(=O)N1 (centres unmarked) [Compound 491, 3-(2-fluoro-3-(indolin-5-yl)phenyl)piperidine-2,6-dione]
96.7 | > 90 | 8.25 | ≤ 100 |  |  |  |  | O=C1CCC(c2cccc(-c3ccc(Cc4ncco4)cc3)c2Cl)C(=O)N1 (centres unmarked) [Compound 472, 3-(2-chloro-4′-(oxazol-2-ylmethyl)-[1,1′-biphenyl]-3-yl)piperidine-2,6-dione]
72.1 | 60 to 90 | 130 | 100 to 1000 |  |  |  |  | O=C1CCC(c2cccc(-c3ccc(N4C(=O)CCn5nccc54)cc3)c2Cl)C(=O)N1 (centres unmarked) [Compound 330]
98.8 | > 90 | 17.2 | ≤ 100 |  |  |  |  | O=C1CCC(c2cccc(-c3ccc(Cc4cccs4)cc3)c2Cl)C(=O)N1 (centres unmarked) [Compound 377, 3-(2-chloro-4′-(thiophen-2-ylmethyl)-[1,1′-biphenyl]-3-yl)piperidine-2,6-dione]
97.1 | > 90 | 3.87 | ≤ 100 |  |  |  |  | O=C1CCC(c2cccc(-c3ccc(CC(=O)N4CCCC4)cc3)c2Cl)C(=O)N1 (centres unmarked) [Compound 235, 3-(2-chloro-4′-(2-oxo-2-(pyrrolidin-1-yl)ethyl)-[1,1′-biphenyl]-3-yl)piperidine-2,6-dione]
93.3 | > 90 | 7.35 | ≤ 100 |  |  |  |  | Cn1ccc(COc2ccc(-c3cccc([C@@H]4CCC(=O)NC4=O)c3Cl)cc2)n1 [Compound 209, (S)-3-(2-chloro-4′-((1-methyl-1H-pyrazol-3-yl)methoxy)-[1,1′-biphenyl]-3-yl)piperidine-2,6-dione]
98.2 | > 90 | 2.78 | ≤ 100 |  |  |  |  | O=C1CCC(c2cccc(-c3ccc(N4C(=O)CCC45CCC5)cc3)c2Cl)C(=O)N1 (centres unmarked) [Compound 457, 3-(2-chloro-4′-(6-oxo-5-azaspiro[3.4]octan-5-yl)-[1,1′-biphenyl]-3-yl)piperidine-2,6-dione]
96.9 | > 90 | 40.9 | ≤ 100 |  |  |  |  | O=C1CC[C@H](c2cccc(-c3ccc(-n4ccccc4=O)cc3)c2Cl)C(=O)N1 [Compound 210, (R)-3-(2-chloro-4′-(2-oxopyridin-1(2H)-yl)-[1,1′-biphenyl]-3-yl)piperidine-2,6-dione]
87.7 | 60 to 90 | 29.6 | ≤ 100 |  |  |  |  | O=C1CCC(c2cccc(-c3ccc(CN4C(=O)CCn5nccc54)cc3)c2Cl)C(=O)N1 (centres unmarked) [Compound 253]
86.3 | 60 to 90 | 161 | 100 to 1000 |  |  |  |  | O=C1CCC(c2cccc(-c3ccc(-n4c(F)cccc4=O)nc3)c2Cl)C(=O)N1 (centres unmarked) [Compound 343, 3-(2-chloro-3-(6-fluoro-2-oxo-2H-[1,2′-bipyridin]-5′-yl)phenyl)piperidine-2,6-dione]
97 | > 90 | 6.45 | ≤ 100 |  |  |  |  | O=C1CCC(c2cccc(-c3ccc(N4CCCN(CC(F)(F)F)C4=O)cc3)c2Cl)C(=O)N1 (centres unmarked) [Compound 449, 3-(2-chloro-4′-(2-oxo-3-(2,2,2-trifluoroethyl)tetrahydropyrimidin-1(2H)-yl)-[1,1′-biphenyl]-3-yl)piperidine-2,6-dione]
97.1 | > 90 | 4.86 | ≤ 100 |  |  |  |  | Cn1ccc(Cn2c(=O)n(C)c3cc(-c4cccc(C5CCC(=O)NC5=O)c4Cl)ccc32)n1 (centres unmarked) [Compound 363, 3-(2-chloro-3-(3-methyl-1-((1-methyl-1H-pyrazol-3-yl)methyl)-2-oxo-2,3-dihydro-1H-benzo[d]imidazol-5-yl)phenyl)piperidine-2,6-dione]
87.8 | 60 to 90 | 49.2 | ≤ 100 |  |  |  |  | Cc1nccn1Cc1ccc(-c2cccc(C3CCC(=O)NC3=O)c2Cl)cc1 (centres unmarked) [Compound 111]
94 | > 90 | 15.1 | ≤ 100 |  |  |  |  | O=C1CCC(c2cccc(-c3ccc(Cn4cccn4)cc3)c2Cl)C(=O)N1 (centres unmarked) [Compound 120]
78 | 60 to 90 | 92.1 | ≤ 100 |  |  |  |  | O=C1CCC(c2cccc(-c3ccc(CN4CCOCC4=O)cc3)c2Cl)C(=O)N1 (centres unmarked) [Compound 302]
61.9 | 60 to 90 | 741 | 100 to 1000 |  |  |  |  | O=C1CCC(c2cccc(-c3ccc(Cn4ccccc4=O)nc3)c2Cl)C(=O)N1 (centres unmarked) [Compound 447, 3-(2-chloro-3-(6-((2-oxopyridin-1(2H)-yl)methyl)pyridin-3-yl)phenyl)piperidine-2,6-dione]
81.2 | 60 to 90 | 105 | 100 to 1000 |  |  |  |  | O=C1CCC(c2cccc(-c3ccc(CN4CCOC4=O)cc3)c2Cl)C(=O)N1 (centres unmarked) [Compound 219]
90.6 | > 90 | 706 | 100 to 1000 |  |  |  |  | O=C1CC[C@](F)(c2cccc(-c3ccc(N4CCCCC4=O)cc3)c2Cl)C(=O)N1 (single isomer, unassigned) [Compound 367]
94.3 | > 90 | 17.5 | ≤ 100 |  |  |  |  | O=C1CCC(c2cccc(-c3ccc(-n4cc(F)ccc4=O)cc3)c2Cl)C(=O)N1 (centres unmarked) [Compound 246, 3-(2-chloro-4′-(5-fluoro-2-oxopyridin-1(2H)-yl)-[1,1′-biphenyl]-3-yl)piperidine-2,6-dione]
92.1 | > 90 | 17 | ≤ 100 |  |  |  |  | CN1CCC[C@@H](c2ccc(-c3cccc(C4CCC(=O)NC4=O)c3Cl)cc2)C1=O (stereo partly drawn) [Compound 410, 3-(2-chloro-4′-((S)-1-methyl-2-oxopiperidin-3-yl)-[1,1′-biphenyl]-3-yl)piperidine-2,6-dione]
73.8 | 60 to 90 | 354 | 100 to 1000 |  |  |  |  | Cn1ccc(COc2ccc(-c3cccc(C4CCC(=O)NC4=O)c3Cl)cn2)n1 (centres unmarked) [Compound 251, 3-(2-chloro-3-(6-((1-methyl-1H-pyrazol-3-yl)methoxy)pyridin-3-yl)phenyl)piperidine-2,6-dione]
25.2 | < 60 | ≥ 10000 | > 1000 |  |  |  |  | COc1ccc(-c2cccc(C3CCC(=O)NC3=O)c2Cl)cc1C#N (centres unmarked) [Compound 139]
 |  |  |  | 97.7 | > 90 | 8.19 | ≤ 100 | Cn1ccc(CN2C(=O)CCc3cc(-c4cccc(C5CCC(=O)NC5=O)c4Cl)ccc32)n1 (centres unmarked) [Compound 501, 3-(2-chloro-3-(1-((1-methyl-1H-pyrazol-3-yl)methyl)-2-oxo-1,2,3,4-tetrahydroquinolin-6-yl)phenyl)piperidine-2,6-dione]
97.8 | > 90 | 6.96 | ≤ 100 |  |  |  |  | COc1ccnc(Cc2ccc(-c3cccc(C4CCC(=O)NC4=O)c3Cl)cc2)n1 (centres unmarked) [Compound 421, 3-(2-chloro-4′-((4-methoxypyrimidin-2-yl)methyl)-[1,1′-biphenyl]-3-yl)piperidine-2,6-dione]
96 | > 90 | 9.71 | ≤ 100 |  |  |  |  | O=C1CCC(c2cccc(-c3ccc(-n4cccc(F)c4=O)cc3)c2Cl)C(=O)N1 (centres unmarked) [Compound 218]
94.3 | > 90 | 21.7 | ≤ 100 |  |  |  |  | CC1(Cc2ccc(-c3cccc(C4CCC(=O)NC4=O)c3Cl)cc2)COC1 (centres unmarked) [Compound 440, 3-(2-chloro-4′-((3-methyloxetan-3-yl)methyl)-[1,1′-biphenyl]-3-yl)piperidine-2,6-dione]
